From US20140142333A1, “NOVEL ANILINE DERIVATIVES AND USE THEREOF” (NEOMICS Co, Ltd., priority 2011, published 2014) come the findings set out here.

One series concerns WI-26 cells. As to the kind of experiment: MTT assay on normal WI-26 cells (cytotoxicity). It counts as cell-based. The note with it: MTT assay after 48 hours; data not shown. As for the experimental part: As a result, 22 compounds were primarily screened. Normal cells, that is, WI-26 cells were treated with the 22 compounds.
For orientation: Tetrazolium assays rely on reduction of a dye to a coloured formazan, in cell work by metabolically active cells.

The subject of series [1] is NCI-H460. As to the kind of experiment: MTT assay on lung cancer cell line NCI-H460. It counts as cell-based, human. Particulars: 0.04 uM, 0.4 uM and 4 uM; 24, 48 and 72 hours; serum free RPMI; FIG. 6. As for the experimental part: Lung cancer cell line, NCI-H460, was cultured in RPMI (HyQ RPMI-1640, Hyclone) medium of streptomycin, containing 10% fetal bovine serum and 1% penicillin for 48 hours, and transferred to a 96-well plate. 12 hours later, the medium was replaced by serum free RPMI medium, and then the cell line was treated with the compound of Formula 1 at a concentration of 0.04 uM, 0.4 uM and 4 uM. 24 hours, 48 hours, and 72 hours later, MTT assay at each concentration was performed.

For series [2], the system named is NCI-H460. Put plainly: FACS assay of apoptosis in NCI-H460. In kind it is cell-based, human. The note with it: medium containing 2% FBS; FIG. 7. As for the experimental part: Lung cancer cell line, NCI-H460, was cultured in RPMI (HyQ RPMI-1640, Hyclone) of streptomycin, containing 10% fetal bovine serum, and 1% penicillin. In order to investigate the effect of the inventive compound on a cell cycle, cells were treated with the inventive compound and cultured in medium containing 2% FBS. The cells were collected and subjected to FACS assay.

The next series has as its system NCI-H460 cells. Put plainly: nude mouse transplanted with NCI-H460 cells, tumor growth inhibition. It counts as in vivo. Particulars: salt form, 50 mg/kg once a day, 27 days. The procedure: A nude mouse transplanted with NCI-H460 cells (human-derived lung cancer cell line) was administered with the […], through intra-abdominal cavity and intra-subcutaneous injection. Then, a growth inhibiting effect of a tumor was tested. Mice were divided into three groups such as a negative control group, and groups administered with a test material in doses of 50 and 100 mg/kg. Each group included 10 mice. The negative control group was administered with a mixture solution containing DMSO (excipient), Tween80, PEG400, and injection water, and the groups administered with the test material in doses of 50 mg/kg were administered with the inventive compound once a day, for 27 days including an autopsy day, 28 times in total (4 times for intra-abdominal cavity injection and 24 times for intra-subcutaneous injection.
During the observation period, general symptoms were observed once a day, and the body weight of an animal and the volume of a tumor were measured twice a week. On the day before autopsy, all individuals were fasted for 18 hours or more. On the day of autopsy, 0.5, 1 and 2 hours 1 after the test material was administered, from 3 mice, 3 mice and 4 mice from respective groups, blood was collected and tumor was extracted.
The collected blood was placed in an EDTA-containing tube, and centrifuged to separate plasma. The extracted tumor was weighed. Half of the plasma and the tumor were rapidly frozen by liquid nitrogen and placed in a frozen state, and the rest were fixed with 10% neutral buffered formalin solution and sent to a test client.

For series [3], the target named is T1, AIMP2-DX2 (Homo sapiens, UniProt Q13155).
T1 sequence (Q13155 1-251 isoform Q13155-2): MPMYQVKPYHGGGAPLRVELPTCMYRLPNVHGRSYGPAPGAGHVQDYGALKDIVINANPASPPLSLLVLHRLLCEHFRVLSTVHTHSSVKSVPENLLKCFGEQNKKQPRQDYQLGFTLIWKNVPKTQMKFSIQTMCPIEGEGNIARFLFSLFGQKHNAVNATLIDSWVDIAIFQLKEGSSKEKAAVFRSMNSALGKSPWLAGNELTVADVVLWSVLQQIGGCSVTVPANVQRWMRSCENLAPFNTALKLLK
As to the kind of experiment: luciferase assay of pGL-DX-2 transfected A549 cells. The note with it: luciferase activity 4 hours after compound treatment; N.C (DMSO) 20089; lower = inhibition.

Series [4] concerns the target T1, AIMP2-DX2. Put plainly: luciferase assay of pGL-DX-2 transfected H460 cells. Particulars: luciferase activity 4 hours after compound treatment; N.C (DMSO) 8627; lower = inhibition.
Experimental: In order to screen for a compound specifically inhibiting the activity of AIMP2-DX2, from a compound library bought from ChemDive (US), the inventors' transfected lung cancer cell line, H460, with pGL2-DX2 (see FIG. 2). After culturing the cell line for 24 hours, they treated it with a compound. Then, after further culturing for 4 hours, luciferase activity was measured through a luciferase assay kit according to a manufacturer protocol (Promega, US), by using a luminometer.
After further culturing for 4 hours, luciferase activity was measured.

For `CCOC(=O)CC(=O)Nc1ccc(C(=O)O)cc1` [P.C], in the series with WI-26 cells, the “cytotoxicity in normal WI-26 cells” value is listed as “no cytotoxicity”. For the same molecule, in the series with NCI-H460 [1], the “cell death of lung cancer cells (MTT)” value was “cell death depending on treating time and concentration”. The “apoptosis rate of cancer cells (FACS)” value in the series with NCI-H460 [2] is listed as “concentration-dependently improves apoptosis rate”. Further, the “body weight of mouse vs control group” value with NCI-H460 cells (FIG. 10) is listed as “no difference”. The “tumors observed (photograph) vs control group” value with NCI-H460 cells (FIG. 12) is listed as “visibly significantly reduced”. In the series with NCI-H460 cells (at autopsy, FIG. 11), the “weight of tumor vs control group” value is given as “significantly reduced”. Also, the “volume of the tumor vs control group” value in the series on NCI-H460 cells (intra-abdominal and subcutaneous injection, FIG. 9) is “significantly reduced”.

For `CCCCc1cccc(NC(=O)/C=C\C(=O)Nc2ccc(C)c(C)c2)c1` [compound 16, N1-(3-butylphenyl)-N4-(3,4-dimethylphenyl)maleamide], on AIMP2-DX2 [3], the “AIMP2-DX2 activity in A549 cells” value is 6871. Besides, on AIMP2-DX2 [4], the “AIMP2-DX2 activity in H460 cells” value is on record as 7511.

Turning to `Cc1ccc(NC(=O)/C=C\C(=O)Nc2ccc(Br)cc2)cc1C` [compound 17, N1-(4-bromophenyl)-N4-(3,4-dimethylphenyl)maleamide], at AIMP2-DX2 [3], the “AIMP2-DX2 activity in A549 cells” value stood at 6975. The “AIMP2-DX2 activity in H460 cells” value at AIMP2-DX2 [4] came out at 5718.

`COc1cccc(NC(=O)/C=C\C(=O)Nc2ccc(F)cc2)c1` [compound 18, N1-(4-fluorophenyl)-N4-(3-methoxyphenyl)maleamide]: the “AIMP2-DX2 activity in A549 cells” value at AIMP2-DX2 [3] worked out at 4239. Moreover, the “AIMP2-DX2 activity in H460 cells” value on AIMP2-DX2 [4] worked out at 3246.

Turning to `CCc1cccc(NC(=O)/C=C\C(=O)Nc2ccc(F)cc2)c1` [compound 19, N1-(3-ethylphenyl)-N4-(4-fluorophenyl)maleamide], the “AIMP2-DX2 activity in A549 cells” value on AIMP2-DX2 [3] came out at 3978. For the same molecule, on AIMP2-DX2 [4], the “AIMP2-DX2 activity in H460 cells” value came to 3715.

As to `Cc1ccc(NC(=O)/C=C\C(=O)O)cc1F` [compound 20, (Z)-4-[(3-fluoro-4-methylphenyl)amino]-4-oxobut-2-enoic acid], the “AIMP2-DX2 activity in A549 cells” value on AIMP2-DX2 [3] is listed as 6446. Also, the “AIMP2-DX2 activity in H460 cells” value at AIMP2-DX2 [4] was determined as 7639.

As to `O=C(/C=C/C(=O)Nc1cc(Cl)cc(Cl)c1)Nc1cc(Cl)cc(Cl)c1` [compound 21, N1,N4-bis(3,5-dichlorophenyl)fumaramide], the “AIMP2-DX2 activity in A549 cells” value on AIMP2-DX2 [3] was determined as 7285. Also, on AIMP2-DX2 [4], the “AIMP2-DX2 activity in H460 cells” value is reported as 6061.

As to `O=C(/C=C/C(=O)Nc1ccc(Br)cc1)Nc1ccc(Br)cc1` [compound 22, N1,N4-bis(4-bromophenyl) fumaramide], the “AIMP2-DX2 activity in A549 cells” value at AIMP2-DX2 [3] came out at 5647. In addition, the “AIMP2-DX2 activity in H460 cells” value on AIMP2-DX2 [4] worked out at 6377.

On to `O=C(/C=C/C(=O)Nc1ccc(Cl)c(Cl)c1)Nc1ccc(Cl)c(Cl)c1` [compound 23, N1,N4-bis(3,4-dichlorophenyl)fumaramide], for which, on AIMP2-DX2 [3], the “AIMP2-DX2 activity in A549 cells” value is reported as 5352. Further, the “AIMP2-DX2 activity in H460 cells” value on AIMP2-DX2 [4] worked out at 6391.

Consider `Cc1ccc(NC(=O)/C=C/C(=O)Nc2ccc(C)c(F)c2)cc1F` [compound 24, N1,N4-bis(3-fluoro-4-methylphenyl)fumaramide], for which the “AIMP2-DX2 activity in A549 cells” value on AIMP2-DX2 [3] was 5812. The “AIMP2-DX2 activity in H460 cells” value at AIMP2-DX2 [4] is reported as 7094.

`COc1ccc(NC(=O)/C=C\C(=O)Nc2ccc(OC)cc2)cc1` [compound 25, N1,N4-bis(4-methoxyphenyl) maleamide]: the “AIMP2-DX2 activity in A549 cells” value at AIMP2-DX2 [3] is recorded as 5152. Further, the “AIMP2-DX2 activity in H460 cells” value at AIMP2-DX2 [4] is reported as 6085.

Take `Cc1ccc(NC(=O)/C=C\C(=O)Nc2ccc(F)cc2)cc1F` [compound 26, N1-(3-fluoro-4-methylphenyl)-N4-(4-fluorophenyl)maleamide]: at AIMP2-DX2 [3], the “AIMP2-DX2 activity in A549 cells” value amounted to 6525. Moreover, the “AIMP2-DX2 activity in H460 cells” value at AIMP2-DX2 [4] is 6428.

As to `Cc1cc(F)ccc1NC(=O)/C=C\C(=O)Nc1ccc(F)cc1C` [compound 27, N1,N4-bis(4-fluoro-2-methylphenyl)maleamide], the “AIMP2-DX2 activity in A549 cells” value at AIMP2-DX2 [3] was 5586. Also, the “AIMP2-DX2 activity in H460 cells” value at AIMP2-DX2 [4] was found to be 6029.

For `COc1cccc(NC(=O)C(C)C(=O)Nc2cc(C)ccc2C)c1` (stereo not shown) [compound 28, N1-(2,5-dimethylphenyl)-N3-(3-methoxyphenyl)-2-methylmalonamide], on AIMP2-DX2 [3], the “AIMP2-DX2 activity in A549 cells” value stood at 6691. The “AIMP2-DX2 activity in H460 cells” value at AIMP2-DX2 [4] was 7722.

`Cc1cccc(NC(=O)/C=C\C(=O)Nc2ccc(F)cc2)c1` [compound 29, N1-(4-fluorophenyl)-N4-(m-tolyl)maleamide]: the “AIMP2-DX2 activity in A549 cells” value at AIMP2-DX2 [3] is 5662. For the same molecule, the “AIMP2-DX2 activity in H460 cells” value at AIMP2-DX2 [4] is given as 5916.

On to `COc1cccc(NC(=O)C(C)C(=O)Nc2cc(C)cc(C)c2)c1` (stereo not shown) [compound 30, N1-(3,5-dimethylphenyl)-N3-(3-methoxyphenyl)-2-methylmalonamide], for which, on AIMP2-DX2 [3], the “AIMP2-DX2 activity in A549 cells” value amounted to 7291. The “AIMP2-DX2 activity in H460 cells” value on AIMP2-DX2 [4] worked out at 7167.

With `CCOC(=O)C(C)C(=O)Nc1ccc2cc3ccccc3cc2c1` (stereo not shown) [compound 31, ethyl 3-(anthracen-2-ylamino)-2-methyl-3-oxopropanoate], on AIMP2-DX2 [3], the “AIMP2-DX2 activity in A549 cells” value was 5771. In addition, the “AIMP2-DX2 activity in H460 cells” value on AIMP2-DX2 [4] is reported as 6346.

As to `CCOC(=O)CC(=O)Nc1ccc(O)cc1Cl` [compound 32, ethyl 3-[(2-chloro-4-hydroxyphenyl)amino]-3-oxopropanoate], on AIMP2-DX2 [3], the “AIMP2-DX2 activity in A549 cells” value is reported as 19889. The “AIMP2-DX2 activity in H460 cells” value on AIMP2-DX2 [4] amounted to 4848.

On to `CCOC(=O)C(C)C(=O)Nc1ccc(O)cc1Cl` (stereo not shown) [compound 33, ethyl 3-[(2-chloro-4-hydroxyphenyl)amino]-2-methyl-3-oxopropanoate], for which, on AIMP2-DX2 [3], the “AIMP2-DX2 activity in A549 cells” value is given as 18631. Further, the “AIMP2-DX2 activity in H460 cells” value on AIMP2-DX2 [4] was found to be 5403.
